Measured values reported in patent US4528289A, “Corynantheine derivates, processes for their preparation, and their use” (Dr. Willmar Schwabe GmbH & Co., priority 1982, dated 1985).

How the values were obtained:
[1] = system: blood pressure, vessels, central nervous system; test: general pharmacological action (statement in words); conditions: in vivo
mice = test: acute toxicity, LD50 (Litchfield and Wilcoxon) on mice; format: in vivo; conditions: i.v., i.p. and oral LD50, mice
Description: (§1) The toxicity of the compounds according to the present invention can be seen from the LD50 values given in the following Table 8 for intravenous, intraperitoneal and oral administration.

[2] = as above; format: in vivo; conditions: mouse, in vivo, mice
Description: as §1

[3] = system: stereotypy brought about by apomorphine; test: potentiation of apomorphine stereotypy in mice; format: in vivo; conditions: oral, same dosage range (10 to 20 mg/kg)
[4] = system: heart rate of spontaneously hypertonic rats; test: heart rate of spontaneously hypertonic rats after oral administration; format: in vivo, rat; conditions: 2 h, dihydrocorynantheine
Description: (§2) The blood pressure-lowering action of the compound THCN according to the present invention and of DHCN was investigated on spontaneously hypertonic rats after oral administration and compared with that of ajmalicine. The method thereby used for the measurement of the systolic blood pressure and of the heart rate on rats is described in Arzneimittel-Forschung, 18, 1285-1287/1968. Before commencement of the experiments, the animals were familiarised with the measurement procedure.
(§3) In a first series of experiments, the systolic blood pressure and the heart rate were investigated 2 hours after the oral administration of the test substances in the form of their hydrochlorides. The substances were suspended in 0.2% agar and administered in a volume of 10 ml./kg. It follows therefrom that all three substances lower the blood pressure in a dosage-dependent manner.

[5] = system: systolic blood pressure of spontaneously hypertonic rats; test: systolic blood pressure of spontaneously hypertonic rats after oral administration; format: in vivo, rat; conditions: 2 h, dihydrocorynantheine
Description: as §2, §3

[6] = system: heart rate of spontaneously hypertonic rats; test: chronological course of heart rate of spontaneously hypertonic rats; format: in vivo, rat; set-up: heart rate at time t: unit not given here; conditions: for heart rate at time t: 10 mg/kg p.o.
Description: as §2
(§4) In a further series of experiments, the chronological course of the blood pressure lowering was investigated. For this purpose, spontaneously hypertonic rats were treated with 10 mg./kg. DHCN and with 5 or 10 mg./kg. THCN per os and in each case 6 or 12 animals of the treated group were measured at definite times after the treatment.

[7] = system: systolic blood pressure of spontaneously hypertonic rats; test: chronological course of blood pressure decrease in spontaneously hypertonic rats; format: in vivo, rat; conditions: for percentage decrease of blood pressure: 10 mg/kg p.o.
Description: as §2, §4

CHCl3 arrhythmia = test: inhibition of CHCl3 arrhythmia on mice, i.p.; format: in vivo
Description: The antiarrhythmic effectiveness of DHCN and THCN was investigated on mice and rats.

CC[C@H]1CN2CCc3c([nH]c4ccccc34)[C@@H]2C[C@@H]1/C(=C\OC)C(=O)OC [DHCN, dihydrocorynantheine]
period and strength of activity compared with ajmalicine (in words) [1]: greater than those of the known comparison compound ajmalicine | toxicities compared (in words) (mice): almost the same | LD50 ([2]; ip): 98 mg/kg | LD50 ([2]; iv): 13 mg/kg | LD50 ([2]; po): 210 mg/kg | properties influencing the central nervous system (in words) [3]: no properties influencing the central nervous system | heart rate, subsequent value ([4]; 4 mg/kg p.o.): 485 ± 14 beats/min. | heart rate, Δ ([4]; 4 mg/kg p.o.): 6 ± 20 beats/min. | heart rate, Δ % ([4]; 4 mg/kg p.o.): 1.5 ± 4.2% | heart rate, subsequent value ([4]; 8.6 mg/kg p.o.): 442 ± 19 beats/min. | heart rate, Δ ([4]; 8.6 mg/kg p.o.): -30 ± 18 beats/min. | heart rate, Δ % ([4]; 8.6 mg/kg p.o.): -6.2 ± 3.7% | heart rate, subsequent value ([4]; 18 mg/kg p.o.): 492 ± 12 beats/min. | heart rate, Δ % ([4]; 18 mg/kg p.o.): -0.6 ± 2.9% | heart rate, subsequent value ([4]; 32 mg/kg p.o.): 477 ± 5 beats/min. | heart rate, Δ ([4]; 32 mg/kg p.o.): -16 ± 11 beats/min. | heart rate, Δ % ([4]; 32 mg/kg p.o.): -3.1 ± 2.2% | heart rate, subsequent value ([4]; 56 mg/kg p.o.): 502 ± 14 beats/min. | heart rate, Δ ([4]; 56 mg/kg p.o.): 3 ± 21 beats/min. | heart rate, Δ % ([4]; 56 mg/kg p.o.): 2.9% | systolic blood pressure, subsequent value ([5]; 4 mg/kg p.o.): 187 ± 6 mm Hg | systolic blood pressure, Δ ([5]; 4 mg/kg p.o.): -12.7 ± 7 mm Hg | systolic blood pressure, Δ % ([5]; 4 mg/kg p.o.): -5.8 ± 3.3% | systolic blood pressure, subsequent value ([5]; 8.6 mg/kg p.o.): 187 ± 5 mm Hg | systolic blood pressure, Δ ([5]; 8.6 mg/kg p.o.): -13 ± 9 mm Hg | systolic blood pressure, Δ % ([5]; 8.6 mg/kg p.o.): -6.2 ± 4.0% | systolic blood pressure, subsequent value ([5]; 18 mg/kg p.o.): 181 ± 3 mm Hg | systolic blood pressure, Δ ([5]; 18 mg/kg p.o.): -21 ± 5 mm Hg | systolic blood pressure, Δ % ([5]; 18 mg/kg p.o.): -10.1 ± 2.1% | systolic blood pressure, subsequent value ([5]; 32 mg/kg p.o.): 175 ± 10 mm Hg | systolic blood pressure, Δ ([5]; 32 mg/kg p.o.): -29 ± 8 mm Hg | systolic blood pressure, Δ % ([5]; 32 mg/kg p.o.): -14.6 ± 4.1% | systolic blood pressure, subsequent value ([5]; 56 mg/kg p.o.): 152 ± 6 mm Hg | systolic blood pressure, Δ ([5]; 56 mg/kg p.o.): -41 ± 5 mm Hg | systolic blood pressure, Δ % ([5]; 56 mg/kg p.o.): -21.4 ± 2.7% | heart rate at time t ([6]; 10 min.): 504 | heart rate at time t ([6]; 20 min.): 515 | heart rate at time t ([6]; 40 min.): 500 | heart rate at time t ([6]; 80 min.): 516 | heart rate at time t ([6]; 2 h.): 521 | heart rate at time t ([6]; 4 h.): 517 | heart rate at time t ([6]; 6 h.): 507 | heart rate change (in words) ([6]; DHCN 10 mg/kg, THCN 10 mg/kg, on the border of statistical significance): an increase is to be observed | percentage decrease of blood pressure ([7]; 10 min.): 10.6% | percentage decrease of blood pressure ([7]; 20 min.): 14.5% | percentage decrease of blood pressure ([7]; 40 min.): 14.5% | percentage decrease of blood pressure ([7]; 80 min.): 6.1% | percentage decrease of blood pressure ([7]; 2 h.): 3.7% | percentage decrease of blood pressure ([7]; 4 h.): 0.8% | percentage decrease of blood pressure ([7]; 6 h.): 1.4% | blood pressure lowering action compared (in words) ([7]; DHCN 10 mg/kg vs THCN 5 mg/kg p.o.): the same action | time of maximum blood pressure lowering ([7]; DHCN 10 mg/kg, THCN 5 mg/kg p.o.): about 40 minutes | blood pressure after the maximum (in words) ([7]; DHCN 10 mg/kg, THCN 5 mg/kg p.o., after about 40 minutes): the blood pressure again increases to the initial value | inhibition in % of CHCl3 arrhythmia (CHCl3 arrhythmia; 10 mg/kg): 0% | inhibition in % of CHCl3 arrhythmia (CHCl3 arrhythmia; 15 mg/kg): 10% | inhibition in % of CHCl3 arrhythmia (CHCl3 arrhythmia; 25 mg/kg): 80%
